Laboratory results from article PMC6615261, “Repurposing Azithromycin and Rifampicin Against Gram-Negative Pathogens by Combination With Peptidomimetics” (Frontiers in Cellular and Infection Microbiology, 2019).
Where two headings read alike, the source gives them in different places.

How the values were obtained:
P. aeruginosa ATCC 27853 [1] = assay: MIC by broth microdilution; format: cell-based, Pseudomonas aeruginosa; details: for Selectivity Index (SI) P. aeruginosa ATCC 27853: average of EC50 (HepG2, NIH 3T3) divided by MIC; for MIC P. aeruginosa ATCC 27853: peptidomimetic alone
Procedure: (§1) Minimal inhibitory concentrations (MICs) of peptidomimetics, antibiotics and their combinations were determined by broth microdilution according to the Clinical Laboratory Standards Institute performance standards (Clinical and Laboratory Standards Institute, [2013]). […] Since rifampicin and azithromycin mainly are used to treat infections with Gram-positive pathogens only CLSI clinical breakpoints were available for such bacteria. […] Potentiation of additional antibiotics by peptidomimetics was determined by using commercial 96-well plates containing varied concentrations of standard antibiotics (COMPAN1F; Trek Diagnostic Systems Inc.). The peptidomimetics were added immediately prior to inoculation with pathogen, and then MICs were determined as above. The MICs of peptidomimetic/antibiotic combinations were determined according to the method above, and the concentration ratios were selected based upon checkerboard results with 2:1 and 1:4 ratio of peptidomimetic with rifampicin or azithromycin, respectively. Minimal bactericidal concentrations (MBCs) were determined by using growth-curve assay plates. MIC plates were prepared as above, and then the plates were incubated at 37°C with continuous shaking. Growth was recorded at 10 min intervals as optical density (OD) at 600 nm during 24 h. At 24 h, for wells without growth, a sample was diluted 10-fold in sterile saline (0.9% sodium chloride) and plated onto MHA, following CLSI guidelines (Clinical and Laboratory Standards Institute, [1999]).

K. pneumoniae ST258 [2] = details: for Antibiotic MIC in combination (AZM): MIC of azithromycin combined with the labelled peptidomimetic; for Antibiotic MIC in combination (RIF): MIC of rifampicin combined with the labelled peptidomimetic; for Peptidomimetic MIC alone: checkerboard
Method in brief: (§2)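 Two-dimensional checkerboard broth microdilution in MHB II, with twofold dilutions of peptidomimetic and antibiotic on crossed axes and 18–20 h incubation per CLSI. FICI = MICA(A+B)/MICA(alone) + MICB(A+B)/MICB(alone); ≤0.5 is interpreted as synergy.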

P. aeruginosa ATCC 27853 [3] = details: for Antibiotic MIC in combination (AZM) / Antibiotic MIC in combination (RIF) / Peptidomimetic MIC alone / Peptidomimetic MIC in combination: P. aeruginosa ATCC 27853; for Antibiotic MIC in combination (AZM): MIC of azithromycin combined with the labelled peptidomimetic; for Antibiotic MIC in combination (RIF): MIC of rifampicin combined with the labelled peptidomimetic; for Peptidomimetic MIC alone: checkerboard; for Reduction of the MIC of azithromycin: P. aeruginosa, sub-MIC concentrations of peptidomimetic
Method in brief: as §2

E. coli ST131 [4] = details: for Antibiotic MIC in combination (AZM): MIC of azithromycin combined with the labelled peptidomimetic; for Antibiotic MIC in combination (RIF): MIC of rifampicin combined with the labelled peptidomimetic; for Peptidomimetic MIC alone: checkerboard
Method in brief: as §2

K. pneumoniae ST258 [5] = assay: MIC by broth microdilution; format: cell-based, Klebsiella pneumoniae; details: for Selectivity Index (SI) K. pneumoniae ST258: average of EC50 (HepG2, NIH 3T3) divided by MIC; for MIC K. pneumoniae ST258: peptidomimetic alone
Procedure: as §1

[6] = MTS/PMS cell viability assay; format: cell-based, mouse; details: mouse, NIH 3T3 fibroblasts, 1 h exposure, read-out: Cytotoxicity NIH 3T3 EC50 ± SD
Procedure: (§3) NIH 3T3 and HepG2 cells (both from ATCC, Manassas, VA, USA) were cultured in flat-bottomed 96-well MicroWell™ plates (NUNC, Roskilde, Denmark) at seeding densities of ~23,000 and ~22,000 cells/well, respectively, and then cultured for 22–24 h under standard culturing conditions (37°C, 5% CO2, humidified air) to reach 80–90% confluence. NIH 3T3 were cultured in Dulbecco's modified Eagle's medium (DMEM) supplemented with 10% (v/v) newborn-calf serum (NCS) (Gibco, Paisly, UK), while HepG2 were cultured in Eagle's minimum essential medium (EMEM) supplemented with 10% (v/v) fetal bovine serum (FBS, Gibco, Paisly, UK), sodium pyruvate (1 mM), and non-essential amino acids (1%, v/v). Both culturing media were further supplemented with penicillin (100 U/mL), streptomycin (100 μg/mL), and L-glutamine (2 mM).
(§4) Effect on cell viability was determined in NIH 3T3 fibroblasts and HepG2 hepatocytes by using the MTS/PMS assay measuring metabolic activity. Briefly, the adhered cells were washed with 37°C Hanks' balanced salt solution (HBSS from Sigma-Aldrich, St. Louis, MO, USA), containing 10 mM HEPES (AppliChem, Darmstadt, Germany), and adjusted to pH 7.4, and were then exposed for 1 h to 100 μL of test compound(s) dissolved in the appropriate culturing medium without serum for each cell line. After exposure the cells were washed with HBSS containing 10 mM HEPES (pH 7.4) and 100 μL of an MTS/PMS solution, consisting of 240 μg/mL MTS (Promega, Madison, WI, USA) and 2.4 μg/mL PMS (SigmaAldrich, Buchs, Switzerland) in HBSS, was added to the cells, which then were incubated for 1 h at 37°C with horizontal shaking under light protection. Absorbance was measured at 492 nm by using a POLARstar OPTIMA plate reader (BMG Labtech, Offenburg, Germany). The relative viability was calculated according to Equation (1) with absorbance values obtained after incubation of cells with test compound; incubation with SDS (0.2%, w/v in medium) defined 100% cell death (Abspos), while the absorbance of cells incubated with medium defined 0% cell death (Absneg).
(§5) (1) Relative viability(%)=(Abssample-Abspos)/(Absneg-Abspos)×100%
(§6) EC50 values were calculated by using GraphPad Prism 7 (GraphPad Software, La Jolla, CA, USA) via fitting of the relative cell viability to the concentration of the test compound by using Equation (2):
(§7) (2) Relative viability(%)= Top-Bottom/1+10^(LogIC50-Log[peptidomimetic]) ×Hill slope
(§8) With top and bottom representing the mean highest and lowest observed values, respectively. The Hill slope represents a factor for the steepness of the linear part of the curve. In order to prevent erroneous calculation, the top and bottom values were constrained to 100 and 0%, respectively. Data were collected from technical triplicates. The selectivity index was calculated as the average effect on cell viability (EC50 values for HepG2 and NIH 3T3 cells) divided by the MIC.

MDR E. coli ST131 = assay: Screening of peptidomimetic-antibiotic combinations (growth / growth inhibition); format: cell-based, Escherichia coli; set-up: key to Growth in combination with RIF / Growth in combination with AZM: Growth (+); growth inhibition (–); details: for Growth in combination with AZM: peptidomimetic 0.5 μM + azithromycin 1 μg/mL; for Growth in combination with RIF: peptidomimetic 0.5 μM + rifampicin 0.5 μg/mL
[7] = MTS/PMS cell viability assay; format: cell-based; details: human, HepG2 hepatocytes, 1 h exposure, read-out: Cytotoxicity HepG2 EC50 ± SD
Procedure: as §3, §4, §5, §6, §7, §8

E. coli ST131 [8] = assay: MIC by broth microdilution; format: cell-based, Escherichia coli; details: for Selectivity Index (SI) E. coli ST131: average of EC50 (HepG2, NIH 3T3) divided by MIC; for MIC E. coli ST131: peptidomimetic alone
Procedure: as §1

K. pneumoniae ST258 [9] = assay: Screening of peptidomimetic-antibiotic combinations (growth / growth inhibition); format: cell-based, Klebsiella pneumoniae; set-up: key to Growth in combination with RIF / Growth in combination with AZM: Growth (+); growth inhibition (–); details: for Growth in combination with AZM: peptidomimetic 0.5 μM + azithromycin 1 μg/mL; for Growth in combination with RIF: peptidomimetic 0.5 μM + rifampicin 0.5 μg/mL
[10] = test system: pro-inflammatory effect of LPS; set-up: method as in Skovbakke et al., 2015; details: at 1 μM; ref Skovbakke et al., 2015; cited from earlier work
NIH 3T3 cells = assay: MTS/PMS cell viability assay; format: cell-based, mouse; details: 1 h exposure, read-out: Cytotoxicity NIH 3T3 EC50 ± SD
Procedure: as §3, §4, §5, §6, §7, §8

NIH 3T3 and HepG2 cells = assay: Effect on viability of mammalian cells (both cell lines); format: cell-based, mouse and human
Procedure: as §3, §4, §5, §6, §7
With top and bottom representing the mean highest and lowest observed values, respectively. The Hill slope represents a factor for the steepness of the linear part of the curve. […] The selectivity index was calculated as the average effect on cell viability (EC50 values for HepG2 and NIH 3T3 cells) divided by the MIC.

CC(=O)N[C@@H](CCCCN)C(=O)N(CCC(=O)N[C@@H](CCCCN)C(=O)N(CCC(=O)N[C@@H](CCCCN)C(=O)N(CCC(=O)N[C@@H](CCCCN)C(=O)N(CCC(=O)N[C@@H](CCCCN)C(=O)N(CCC(=O)N[C@@H](CCCCN)C(=O)N(CCC(N)=O)Cc1ccccc1)Cc1ccccc1)Cc1ccccc1)Cc1ccccc1)Cc1ccccc1)Cc1ccccc1 [Peptidomimetic 14, Ac-(Lys-βNPhe)6-NH2]
Selectivity Index (SI) P. aeruginosa ATCC 27853 (P. aeruginosa ATCC 27853 [1]): (17)
MIC P. aeruginosa ATCC 27853 (P. aeruginosa ATCC 27853 [1]): 16 µM
Antibiotic MIC in combination (AZM) (K. pneumoniae ST258 [2]): 4 µg/mL
Antibiotic MIC in combination (RIF) (K. pneumoniae ST258 [2]): 1 µg/mL
Peptidomimetic MIC alone (K. pneumoniae ST258 [2]): 64 µM
Antibiotic MIC in combination (AZM) (P. aeruginosa ATCC 27853 [3]): 1 µg/mL
Antibiotic MIC in combination (RIF) (P. aeruginosa ATCC 27853 [3]): 1 µg/mL
Peptidomimetic MIC alone (P. aeruginosa ATCC 27853 [3]): 16 µM
Peptidomimetic MIC in combination (P. aeruginosa ATCC 27853 [3]; combined with AZM): 4 µM
Peptidomimetic MIC in combination (P. aeruginosa ATCC 27853 [3]; combined with RIF): 4 µM
Reduction of the MIC of azithromycin (P. aeruginosa ATCC 27853 [3]): 32- to 512 fold
Antibiotic MIC in combination (AZM) (E. coli ST131 [4]): 1 µg/mL
Antibiotic MIC in combination (RIF) (E. coli ST131 [4]): 0.25 µg/mL
Peptidomimetic MIC alone (E. coli ST131 [4]): 4 µM
Peptidomimetic MIC in combination (E. coli ST131 [4]; combined with AZM): 0.25 µM
Peptidomimetic MIC in combination (E. coli ST131 [4]; combined with RIF): 0.25 µM
Selectivity Index (SI) K. pneumoniae ST258 (K. pneumoniae ST258 [5]): (4)
MIC K. pneumoniae ST258 (K. pneumoniae ST258 [5]): 64 µM
EC50 at 1 h [6]: 323 µM
Growth in combination with AZM (MDR E. coli ST131): –
Growth in combination with RIF (MDR E. coli ST131): –
EC50 at 1 h [7]: 234 µM
Selectivity Index (SI) E. coli ST131 (E. coli ST131 [8]): (70)
MIC E. coli ST131 (E. coli ST131 [8]): 4 µM
Growth in combination with AZM (K. pneumoniae ST258 [9]): +
Growth in combination with RIF (K. pneumoniae ST258 [9]): +
Block of the pro-inflammatory effect of LPS [10]: block the pro-inflammatory effect of LPS

COCCOCCOCC(=O)N[C@@H](CCCCN)C(=O)N(CCC(=O)N[C@@H](CCCCNC(=N)N)C(=O)N(CCC(=O)N[C@@H](CCCCN)C(=O)N(CCC(=O)N[C@@H](CCCCNC(=N)N)C(=O)N(CCC(=O)N[C@@H](CCCCN)C(=O)N(CCC(=O)N[C@@H](CCCCNC(=N)N)C(=O)N(CCC(N)=O)[C@@H](C)c1ccccc1)[C@@H](C)c1ccccc1)[C@@H](C)c1ccccc1)[C@@H](C)c1ccccc1)[C@@H](C)c1ccccc1)[C@@H](C)c1ccccc1 [Peptidomimetic 28, TODA-(Lys-βNspe-hArg-βNspe)3-NH2]
Selectivity Index (SI) P. aeruginosa ATCC 27853 (P. aeruginosa ATCC 27853 [1]): (10)
MIC P. aeruginosa ATCC 27853 (P. aeruginosa ATCC 27853 [1]): 16 µM
Antibiotic MIC in combination (AZM) (K. pneumoniae ST258 [2]): 4 µg/mL
Antibiotic MIC in combination (RIF) (K. pneumoniae ST258 [2]): 0.5 µg/mL
Peptidomimetic MIC alone (K. pneumoniae ST258 [2]): 16 µM
Peptidomimetic MIC in combination (K. pneumoniae ST258 [2]; combined with AZM): 2 µM
Peptidomimetic MIC in combination (K. pneumoniae ST258 [2]; combined with RIF): 1 µM
Antibiotic MIC in combination (AZM) (P. aeruginosa ATCC 27853 [3]): 0.5 µg/mL
Antibiotic MIC in combination (RIF) (P. aeruginosa ATCC 27853 [3]): 0.06 µg/mL
Peptidomimetic MIC alone (P. aeruginosa ATCC 27853 [3]): 16 µM
Peptidomimetic MIC in combination (P. aeruginosa ATCC 27853 [3]; combined with AZM): 2 µM
Peptidomimetic MIC in combination (P. aeruginosa ATCC 27853 [3]; combined with RIF): 4 µM
Reduction of the MIC of azithromycin (P. aeruginosa ATCC 27853 [3]): 32- to 512 fold
Antibiotic MIC in combination (AZM) (E. coli ST131 [4]): 0.5 µg/mL
Antibiotic MIC in combination (RIF) (E. coli ST131 [4]): 0.13 µg/mL
Peptidomimetic MIC alone (E. coli ST131 [4]): 2 µM
Peptidomimetic MIC in combination (E. coli ST131 [4]; combined with AZM): 0.5 µM
Peptidomimetic MIC in combination (E. coli ST131 [4]; combined with RIF): 0.5 µM
Selectivity Index (SI) K. pneumoniae ST258 (K. pneumoniae ST258 [5]): (10)
MIC K. pneumoniae ST258 (K. pneumoniae ST258 [5]): 16 µM
EC50 at 1 h [6]: ~218 µM
EC50 (NIH 3T3 cells): 218 ± 18.1 µM
Growth in combination with AZM (MDR E. coli ST131): –
Growth in combination with RIF (MDR E. coli ST131): –
EC50 at 1 h [7]: 118 ± 2.05 µM
EC50 (NIH 3T3 and HepG2 cells): > 100 µM
Selectivity Index (SI) E. coli ST131 (E. coli ST131 [8]): (84)
MIC E. coli ST131 (E. coli ST131 [8]): 2 µM
Growth in combination with AZM (K. pneumoniae ST258 [9]): +
Growth in combination with RIF (K. pneumoniae ST258 [9]): +
